Publication PMC9282638, “A Suite of Activity-Based Probes To Dissect the KLK Activome in Drug-Resistant Prostate Cancer” (Journal of the American Chemical Society, 2021)

Experiments:
[1] = target: T1, KLK14 (Homo sapiens, UniProt Q9P0G3); test: Inhibition of KLK14 after incubation with 50 µM probe (Figure S8); format: biochemical; details: 30 minutes
T1 construct: purchased R&D Systems
T1 sequence (Q9P0G3 25-251): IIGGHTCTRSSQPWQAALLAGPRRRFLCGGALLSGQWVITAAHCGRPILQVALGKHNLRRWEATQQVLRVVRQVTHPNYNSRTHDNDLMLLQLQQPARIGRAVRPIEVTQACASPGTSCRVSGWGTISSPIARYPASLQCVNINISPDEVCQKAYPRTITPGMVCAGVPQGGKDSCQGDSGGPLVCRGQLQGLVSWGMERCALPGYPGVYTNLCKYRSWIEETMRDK

[2] = tested on: LNCaP-K14 cells; format: cell-based, human; details: for cytotoxicity: 10 μM, 96 h time period; for effect on proliferation (cell confluency): Figure S27
Text: Prior to the establishment of bone metastases circulating PCa cells must first enter the bone microenvironment by migrating across the sinusoidal wall.[54] We have previously shown that increased KLK14 activity drives PCa cell migration and colonization of mineralized bone matrices.[15] However, the specific contributions of the KLK activome (KLK2, KLK3, and KLK14) toward PCa cell migration are yet to be elucidated. […] We then assessed the migratory capacity of LNCaP-K14 cells using a transwell assay (see Figure S28 for standard curve).
proliferation of LNCaP-K14 cells. Cell confluency was monitored by real-time imaging using
an Incucyte S3 system (Essen Bioscience).
(1 picture or pasted object on this page, not shown here)

[3] = tested on: LNCaP-K14 cells; test: Transwell cell migration assay; format: cell-based, human; details: 1 μM ABP, 24 h; KLK14 expression induced with Dox, 10 nM DHT
Protocol: Figure 6 Dissecting the KLK activome in LNCaP cells. (A) Structures of fluorescent ABPs 42, 20, and 43 for KLK2, KLK3, and KLK14, respectively. (B) KLK activity profiling by in-gel fluorescence of conditioned media obtained from LNCaP-WT, LNCaP-mK14, and LNCaP-K14 cells following treatment with DHT (10 nM), Dox (100 ng/mL), and the appropriate biotinylated ABP using fluorescent ABPs 20, 42 and 43. See Figure S26 for blot and gel quantification. (C) Assessment of KLK activity inhibition on LNCaP cell migration. LNCaP-K14 cells were cultured in serum-free RPMI media supplemented with 10 nM DHT ± Dox (100 ng/mL) for 24 h. Cells were added to transwell inserts (100 000 cells in 100 μL of serum-free RPMI), and after 4 h the appropriate ABP was added. Cultures were incubated for a further 24 h before the number of migrating cells was quantified. […]
each library member was 50 μM and the total reaction volume was 50 μL. The excitation wavelength was 355 nm, and the emission wavelength was 460 nm. An amount of 1 μL of each HyCoSuL peptide was added into a well in a 96-well plate containing 24 μL of KLK buffer.
Next, 25 μL of the active KLK enzyme was added to each well and substrate hydrolysis was recorded in kinetic mode at RT for at least 10 min. The linear portion of each progress curve was used to calculate relative fluorescence units per second (RFUs-1). […] Specificity was calculated by normalizing RFUs-1 to the highest value, which was set at 100 %. […]
(§1) Determination of kcat/KM: The KLK2 substrate and KLK14 substrate were serially diluted in the appropriate KLK assay buffer and 25 μL was added to the wells of a 96-well plate. Next, 25 μL of KLK2 (1.5 nM) or KLK14 (75 pM) was added to each well containing the substrate and the enzyme-substrate reaction was monitored for at least 10 min. The linear portion of each progress curve was used to calculate relative fluorescence units per second (RFUs-1).
KM, kcat, and kcat/KM parameters were determined by nonlinear regression in GraphPad Prism 5 (GraphPad Software). […]

[4] = target: T1, KLK14; test: Determination of kinact/KI, fluorogenic substrate kinetic assay; format: biochemical; details: for kinact/KI: mean ± SEM (N = 3)
[5] = target: T2, KLK2 (Homo sapiens, UniProt P20151); test: as above; format: biochemical; details: for kinact/KI: mean ± SEM (N = 3)
T2 construct: purchased R&D Systems
T2 sequence (P20151 25-261): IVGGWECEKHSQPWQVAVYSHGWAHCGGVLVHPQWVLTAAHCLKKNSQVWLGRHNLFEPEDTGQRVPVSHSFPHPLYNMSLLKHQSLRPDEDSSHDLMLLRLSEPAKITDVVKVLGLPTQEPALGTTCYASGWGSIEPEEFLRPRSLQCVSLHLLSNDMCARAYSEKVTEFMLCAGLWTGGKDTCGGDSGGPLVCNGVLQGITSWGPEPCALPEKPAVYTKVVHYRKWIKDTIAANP
Text: 1.1 Chemicals and Reagents
All chemicals and reagents were purchased from commercial suppliers and used without further purification. Rink Amide resin (100-200 mesh) and 2-Chlorotrityl chloride resin (100-200 mesh, 1% DVB) were obtained from Merck. Natural Fmoc-amino acids were obtained from AGTC Bioproducts Ltd. Unnatural Fmoc-amino acids were obtained from Fluorochem, Alfa Aesar, VWR, Merck, Iris Biotech, Bachem or Sigma Aldrich. Culture media, fetal bovine serum, trypsin, antibiotics and chemicals required for differentiation of osteoprogenitor cells were obtained from Sigma Aldrich, Gibco or Invitrogen. Amicon 3 KDa Centrifugal filter units were obtained from Merck. Recombinant human KLK2 and KLK14 were obtained from R&D Systems and activated using the supplier’s protocol. All remaining chemical reagents were obtained from VWR, Sigma Aldrich or Merck. […]
Fluorescent plate-based enzymatic assays were carried out using an Envision 2104 Multilabel Plate Reader (PerkinElmer) operating in kinetic mode for a minimum of 20 min with excitation/emission […]
Specificity […]
was calculated by normalizing RFUs-1 to the highest value, which was set at 100 %.
Calculations were made in GraphPad Prism 5.
as §1
KM, kcat, and kcat/KM parameters were determined by nonlinear regression in GraphPad Prism 5 (GraphPad Software). Each experiment was repeated three times and the results are presented as an average ± SEM.
Determination of kinact/KI: Under pseudo-first order conditions, a fixed amount of KLK2 (1.5 nM) or KLK14 (37 pM) was incubated with peptidyl-DPP analogue at different concentrations in the presence of 5 µM of substrate. The pseudo first-order rate constant, kobs, was calculated for each probe concentration using non-linear regression analysis in GraphPad Prism 5. The obtained values were plotted against probe concentration to afford the apparent second order rate constant kinact(app)/KI. The absolute value of the second order rate constant was then obtained by adjusting for the substrate competition factor (1 + [S]/Km), where S is the concentration of substrate in the assay and KM is the Michaelis Menten constant for that substrate/enzyme reaction.
2.5 Cell Migration Assays
Cell migration: The assay was performed as per the manufacturer’s protocol (https://www.corning.com/catalog/cls/documents/protocols/an_Chemotaxis_protocol.pdf).
Briefly, LNCaP-WT, LNCaP-mK14 and LNCaP-K14 cells were grown to 80% confluency in RPMI media supplemented with 5 % FBS. The media was then aspirated, the cells were washed with 2 mL PBS (3*) and incubated with serum-free RPMI (without phenol red) supplemented with 10 nM DHT ± 100 ng/mL Dox for 24 h. Cells were trypsinized, washed twice with serum-free RPMI and resuspended in serum-free RPMI. 100,000 cells in 100 µL of serum-free RPMI was then added to the transwell inserts placed in a 24-well plate (Corning […]
Figure S15: KLK2 and KLK14 substrates. (A) Structures (B) Optimal assay conditions for […]
S19) inhibitors (C) Michaelis-Menten (K M) and rate (kcat) constants for KLK substrates

[6] = KLK14 probe optimization series

| Structure (SMILES) | inhibition of KLK14 [1] | cytotoxicity [2] | effect on proliferation (cell confluency) [2] | effect on number of migrating cells [3] | kinact/KI ([4]; KLK2 probe optimization series) | selectivity (fold-change) ([5]; KLK2 probe optimization series, KLK2 over KLK14) | kinact/KI ([5]; KLK2 probe optimization series) | selectivity (fold-change) ([4]; KLK14 probe optimization series, KLK14 over KLK2) | kinact/KI [4, 6] | fold higher potency toward KLK14 ([4]; relative to compound 32) | kinact/KI [5, 6] |
| --- | --- | --- | --- | --- | --- | --- | --- | --- | --- | --- | --- |
| CCC[C@H](NC(=O)[C@H](CCC(N)=O)NC(=O)[C@H](CC(N)=O)NC(=O)CCCCCNC(=O)CCCC[C@@H]1SC[C@@H]2NC(=O)N[C@@H]21)C(=O)NC(c1ccc(C(N)=O)cc1)P(=O)(Oc1ccccc1)Oc1ccccc1 (some centres unmarked) [compound 20] | no inhibition | no cytotoxicity | no significant effect | no significant effect | – | – | – | – | – | – | – |
| CC(C)(C)C(NC(=O)CCCCCNC(=O)CCCCC1SCC2NC(=O)NC21)C(=O)NC(CCN)C(=O)NC(Cc1ccc(O)cc1)C(=O)NC(c1ccc(NC(=N)N)cc1)P(=O)(Oc1ccccc1)Oc1ccccc1 (stereo not drawn) [compound 31, Tle-Dab-Tyr-Arg] | – | no cytotoxicity | no significant effect | no significant effect | 94 ± 7 M⁻¹ s⁻¹ | 33 fold | 3080 ± 87 M⁻¹ s⁻¹ | – | – | – | – |
| CCC(NC(=O)C(CCN)NC(=O)C(Cc1ccc2ccccc2c1)NC(=O)CCCCCNC(=O)CCCCC1SCC2NC(=O)NC21)C(=O)NC(c1ccc(NC(=N)N)cc1)P(=O)(Oc1ccccc1)Oc1ccccc1 (stereo not drawn) [compound 39, 2Nal-Dab-Abu-Arg] | – | no cytotoxicity | no significant effect | nullified | – | – | – | 220 fold | 44500 ± 1980 M⁻¹ s⁻¹ | 80 fold | 204 ± 13 M⁻¹ s⁻¹ |
